The test system of this experiment is HIV-1 (JRCSF). Description: Anti-HIV activity in MaRBLE cells infected with HIV-1 (JRCSF), luciferase readout. It counts as cell-based. As to conditions: Human immunodeficiency virus 1, 168 h; MaRBLE cells (human T lymphocyte-derived HPB-M(a)) infected with HIV-1 (JRCSF); 7 days culture; rate of viral proliferation by luciferase activity; read-out: Anti-HIV activity IC50. The protocol:
This test was conducted with reference to Journal of Clinical Microbiology, 2007, Vol. 45, p. 477-487.
The anti-HIV activity was evaluated using MaRBLE cells in which a luciferase gene to be expressed under the control of HIV-1 LTR and a CCR5 gene, etc. were introduced in human T lymphocyte-derived HPB-M(a).
A fresh medium or each appropriately diluted test compound was dispensed to 96-well plates to prepare drug solution-containing plates.
The MaRBLE cells were suspended in RPMI1640 containing 10% FCS (fetal calf serum) and penicillin/streptomycin and infected with HIV-1 (JRCSF). Then, the cells were inoculated to the drug solution-containing plates (1×10^5 cells/well). The same number of uninfected cells were inoculated as a control group to the drug solution-containing plates.
After culture at 37° C. for 7 days in a 5% CO2 atmosphere, the intracellular luciferase activity was measured using Steady-Glo Luciferase assay system (Promega Corp.).
The rate of viral proliferation was determined according to the following expression:
Rate of viral proliferation(%)=(A/B)×100
A=(Firefly luciferase activity of the compound-supplemented well)−(Firefly luciferase activity of the uninfected cells)
B=(Firefly luciferase activity of the compound-free well)−(Firefly luciferase activity of the uninfected cells)
IC50 of the compound was calculated by a plot with concentration as the logarithm and the rate of viral proliferation as the real part using the FORECAST function (linear regression method) of Microsoft Office Excel 2003.
In the case of `COc1ccc(CNc2cc(=O)n(O)c3ncncc23)cc1` [Example 1, 8-hydroxy-5-((4-methoxybenzyl)amino)pyrido[2,3-d]pyrimidin-7(8H)-one], the IC50 was determined as 110 nM.

For `O=c1cc(NCc2ccccc2)c2cncnc2n1O` [Example 2, 5-(benzylamino)-8-hydroxypyrido[2,3-d]pyrimidin-7(8H)-one], the concentration for half-maximal inhibition (IC50) came out at 120 nM.

Turning to `O=c1cc(NCc2ccc3ccccc3c2)c2cncnc2n1O` [Example 3, 8-hydroxy-5-((2-naphthylmethyl)amino)pyrido[2,3-d]pyrimidin-7(8H)-one], the IC50 amounted to 190 nM.

Regarding `O=c1cc(NCC2CCCCC2)c2cncnc2n1O` [Example 4, 5-((cyclohexylmethyl)amino)-8-hydroxypyrido[2,3-d]pyrimidin-7(8H)-one], the half-maximal inhibitory concentration (IC50) was 410 nM.

With `O=c1cc(NCc2ccccn2)c2cncnc2n1O` [Example 5, 8-hydroxy-5-(((pyridin-2-yl)methyl)amino)pyrido[2,3-d]pyrimidin-7(8H)-one], the IC50 came out at 210 nM.

For `O=c1cc(NCc2ccc(F)cc2F)c2cncnc2n1O` [Example 6, 5-((2,4-difluorobenzyl)amino)-8-hydroxypyrido[2,3-d]pyrimidin-7(8H)-one], the half-maximal inhibitory concentration (IC50) came to 180 nM.

As for `CC(Nc1cc(=O)n(O)c2ncncc12)c1ccccc1` (stereo not drawn) [Example 7, 8-hydroxy-5-((1-phenylethyl)amino)pyrido[2,3-d]pyrimidin-7(8H)-one], the IC50 stood at 170 nM.

As to `O=c1cc(NC2CCCCC2)c2cncnc2n1O` [Example 8, 5-(cyclohexylamino)-8-hydroxypyrido[2,3-d]pyrimidin-7(8H)-one], the IC50 turned out to be 220 nM.

Take `O=c1cc(NC2Cc3ccccc3C2)c2cncnc2n1O` [Example 10]: the IC50 amounted to 530 nM.

Consider `O=c1cc(Nc2ccccc2)c2cncnc2n1O` [Example 16, 5-anilino-8-hydroxypyrido[2,3-d]pyrimidin-7(8H)-one], for which the IC50 amounted to 280 nM.

`O=c1cc(NCCc2ccccc2)c2cncnc2n1O` [Example 17, 8-hydroxy-5-((2-phenylethyl)amino)pyrido[2,3-d]pyrimidin-7(8H)-one]: the half-maximal inhibitory concentration (IC50) was 690 nM.

For the compound `O=c1cc(NCc2cccnc2)c2cncnc2n1O` [Example 18, 8-hydroxy-5-((pyridin-3-ylmethyl)amino)pyrido[2,3-d]pyrimidin-7(8H)-one], the IC50 is 230 nM.

With `Cc1ncnc2c1c(O)cc(=O)n2O` [Example 21, 5,8-dihydroxy-4-methylpyrido[2,3-d]pyrimidin-7(8H)-one], the IC50 turned out to be 880 nM.

On to `Cc1ncnc2c1c(NCc1ccccc1)cc(=O)n2O` [Example 22, 5-(benzylamino)-8-hydroxy-4-methylpyrido[2,3-d]pyrimidin-7(8H)-one], for which the IC50 was 47 nM.

Regarding `Cc1ncnc2c1c(NCc1cccc(C(F)(F)F)c1)cc(=O)n2O` [Example 28, 8-hydroxy-4-methyl-5-((3-(trifluoromethyl)benzyl)amino)pyrido[2,3-d]pyrimidin-7(8H)-one], the half-maximal inhibitory concentration (IC50) was determined as 43 nM.

In the case of `Cc1ncnc2c1c(NCc1cccc(N(C)C)c1)cc(=O)n2O` [Example 29, 5-((3-(dimethylamino)benzyl)amino)-8-hydroxy-4-methylpyrido[2,3-d]pyrimidin-7(8H)-one], the IC50 was determined as 50 nM.

On to `Cc1ncnc2c1c(NCc1ccc(N(C)C)cc1)cc(=O)n2O` [Example 30, 5-((4-(dimethylamino)benzyl)amino)-8-hydroxy-4-methylpyrido[2,3-d]pyrimidin-7(8H)-one], for which the concentration for half-maximal inhibition (IC50) turned out to be 76 nM.

Turning to `COc1cccc(CNc2cc(=O)n(O)c3ncnc(C)c23)c1` [Example 31, 8-hydroxy-5-((3-methoxybenzyl)amino)-4-methylpyrido[2,3-d]pyrimidin-7(8H)-one], the concentration for half-maximal inhibition (IC50) stood at 230 nM.

Consider `COc1ccc(CNc2cc(=O)n(O)c3ncnc(C)c23)cc1` [Example 32, 8-hydroxy-5-((4-methoxybenzyl)amino)-4-methylpyrido[2,3-d]pyrimidin-7(8H)-one], for which the IC50 was 29 nM.

On to `COc1ccccc1CNc1cc(=O)n(O)c2ncnc(C)c12` [Example 33, 8-hydroxy-5-((2-methoxybenzyl)amino)-4-methylpyrido[2,3-d]pyrimidin-7(8H)-one], for which the IC50 is 53 nM.

As for `Cc1ncnc2c1c(NCc1cccc(C#N)c1)cc(=O)n2OCc1ccccc1` [Example 34, 3-(((8-(benzyloxy)-4-methyl-7-oxo-7,8-dihydropyrido[2,3-d]pyrimidin-5-yl)amino)methyl)benzonitrile], the IC50 turned out to be 65 nM.

On to `Cc1ncnc2c1c(NCC1CCCCC1)cc(=O)n2O` [Example 35, 5-((cyclohexylmethyl)amino)-8-hydroxy-4-methylpyrido[2,3-d]pyrimidin-7(8H)-one], for which the IC50 stood at 68 nM.

As for `Cc1ncnc2c1c(NCc1ccccc1F)cc(=O)n2O` [Example 36, 5-((2-fluorobenzyl)amino)-8-hydroxy-4-methylpyrido[2,3-d]pyrimidin-7(8H)-one], the 50% inhibitory concentration (IC50) was determined as 86 nM.

In the case of `Cc1ncnc2c1c(NC1CCCCC1)cc(=O)n2O` [Example 37, 5-(cyclohexylamino)-8-hydroxy-4-methylpyrido[2,3-d]pyrimidin-7(8H)-one], the IC50 was 110 nM.

For `COc1ccc(CNc2cc(=O)n(O)c3ncnc(C)c23)c(OC)c1` [Example 38, 5-((2,4-dimethoxybenzyl)amino)-8-hydroxy-4-methylpyrido[2,3-d]pyrimidin-7(8H)-one], the IC50 was found to be 42 nM.

With `CCN(CC)c1ccc(CNc2cc(=O)n(O)c3ncnc(C)c23)cc1` [Example 39, 5-((4-(diethylamino)benzyl)amino)-8-hydroxy-4-methylpyrido[2,3-d]pyrimidin-7(8H)-one], the half-inhibitory concentration (IC50) is 62 nM.

Take `Cc1ncnc2c1c(NCc1ccc(N(C)C)nc1)cc(=O)n2O` [Example 40, 5-(((6-(dimethylamino)pyridin-3-yl)methyl)amino)-8-hydroxy-4-methylpyrido[2,3-d]pyrimidin-7(8H)-one]: the IC50 worked out at 48 nM.

`Cc1ncnc2c1c(NCc1cccnc1N(C)C)cc(=O)n2O` [Example 41, 5-(((2-(dimethylamino)pyridin-3-yl)methyl)amino)-8-hydroxy-4-methylpyrido[2,3-d]pyrimidin-7(8H)-one]: the IC50 came to 48 nM.

For the compound `Cc1ncnc2c1c(NCc1ccc(C#N)cc1)cc(=O)n2O` [Example 42, 4-(((8-hydroxy-4-methyl-7-oxo-7,8-dihydropyrido[2,3-d]pyrimidin-5-yl)amino)methyl)benzonitrile], the IC50 was 72 nM.

Take `Cc1ccc(CNc2cc(=O)n(O)c3ncnc(C)c23)cc1` [Example 43, 8-hydroxy-4-methyl-5-((4-methylbenzyl)amino)pyrido[2,3-d]pyrimidin-7(8H)-one]: the IC50 was 39 nM.

In the case of `Cc1ncnc2c1c(NCc1ccc(Cl)cc1)cc(=O)n2O` [Example 44, 5-((4-chlorobenzyl)amino)-8-hydroxy-4-methylpyrido[2,3-d]pyrimidin-7(8H)-one], the IC50 was 29 nM.

Turning to `Cc1ncnc2c1c(NCc1cccc(OC(F)(F)F)c1)cc(=O)n2O` [Example 45, 8-hydroxy-4-methyl-5-((3-(trifluoromethoxy)benzyl)amino)pyrido[2,3-d]pyrimidin-7(8H)-one], the IC50 was found to be 170 nM.

As to `Cc1ccccc1CNc1cc(=O)n(O)c2ncnc(C)c12` [Example 46, 8-hydroxy-4-methyl-5-((2-methylbenzyl)amino)pyrido[2,3-d]pyrimidin-7(8H)-one], the IC50 was 40 nM.
